For the test, the target named is T1, Cloned Human Serotonin Receptor, Subtype 7 (h5HT7) (Homo sapiens, UniProt P34969).
T1 construct: purchased PerkinElmer 6120512; host or cells: CHO cells (membranes coated on Basic FlashPlate SMP200)
As to the kind of experiment: Radioligand binding assay, cloned human serotonin receptor subtype 7 (h5HT7) expressed in CHO cells, [125I]LSD. Particulars: for IC50: [125I]LSD 0.82 nM, h5HT7 membranes from CHO cells, read-out: 5-HT7 IC50; for inhibition at 1 µM: compound at 10^−6 M, read-out: 5-HT7 %-Inhib. (10^−6 M). As for the experimental part:
Radioligand binding assays were performed using the Cloned Human Serotonin Receptor, Subtype 7 (h5HT7), expressed in CHO cells, coated on Flashplate (Basic FlashPlate Cat.: SMP200) from PerkinElmer (Cat.: 6120512). The protocol assay was essentially the recommended protocol in the Technical Data Sheet by PerkinEmer Life and Analytical Sciences. The Mass membrane protein/well was typically 12 μg and the Receptor/well was about 9-10 fmoles. The Flashplate were let equilibrate at room temperature for one hour before the addition of the components of the assay mixture. The binding buffer was: 50 mM Tris-HCl, pH 7.4, containing 10 mM MgCl2, 0.5 mM EDTA and 0.5% BSA. The radioligand was [^125I]LSD at a final concentration of 0.82 nM. Nonspecific binding was determined with 50 μM of Clozapine. The assay volume was 25 μl. TopSeal-A were applied onto Flashplate microplates and they were incubated at room temperature for 240 minutes in darkness. The radioactivity were quantified by liquid scintillation spectrophotometry (Wallac 1450 Microbeta Trilux) with a count delay of 4 minutes prior to counting and a counting time of 30 seconds per well. Competition binding data were analyzed by using the LIGAND program (Munson and Rodbard, LIGAND: A versatile, computerized approach for characterization of ligand-binding systems. Anal. Biochem. 107: 220-239, 1980) and assays were performed in triplicate determinations for each point.

Structures are written as SMILES. Where a name gives a salt, the structure may show the parent alone.

The values that follow come from patent publication US8097641B2, “Heterocyclyl substituted tetrahydronaphthalene derivatives as 5-HT7 receptor ligands” (Laboratorios del Dr. Esteve, S.A., priority 2007, dated 2012).

As a reminder, the IC50 is the concentration needed to halve the response being measured.

T1 sequence (P34969 whole entry): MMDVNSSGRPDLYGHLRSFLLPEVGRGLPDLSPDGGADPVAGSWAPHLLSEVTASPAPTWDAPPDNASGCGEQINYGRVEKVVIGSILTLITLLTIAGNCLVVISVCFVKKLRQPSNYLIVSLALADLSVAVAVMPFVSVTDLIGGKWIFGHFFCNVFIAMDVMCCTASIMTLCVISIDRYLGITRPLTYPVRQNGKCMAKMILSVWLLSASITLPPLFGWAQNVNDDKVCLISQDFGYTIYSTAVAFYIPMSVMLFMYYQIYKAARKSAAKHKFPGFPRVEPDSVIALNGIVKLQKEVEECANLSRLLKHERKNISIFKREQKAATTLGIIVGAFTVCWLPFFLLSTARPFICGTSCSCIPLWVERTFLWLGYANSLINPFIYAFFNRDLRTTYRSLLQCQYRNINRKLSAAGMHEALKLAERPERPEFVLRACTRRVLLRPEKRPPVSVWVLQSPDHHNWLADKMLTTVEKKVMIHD

For the compound `Cc1nn(C)c(C)c1-c1cccc2c1CC[C@H](N(C)Cc1ccccc1)C2` [Example F, (2S)-Benzyl-methyl-[5-(1,3,5-trimethyl-1H-pyrazol-4-yl)-1,2,3,4-tetrahydro-naphthalen-2-yl]-amine], the IC50 came out at 187 nM.
Consider `Cc1nn(C)c(C)c1-c1cccc2c1CC[C@H](N)C2` [Example O, (2S)-5-(1,3,5Trimethyl-1H-pyrazol-4-yl)-1,2,3,4-tetrahydro-naphthalen-2-ylamine dihydrochloride], for which the IC50 was found to be 25 ± 3.8 nM and the inhibition at 1 µM was determined as 79%. Moreover, under “compound at 10^−7 M, read-out: 5-HT7 %-Inhib. (10^−7 M)”, the inhibition at 0.1 µM came to 47.2%.
Take `Cc1nn(C)c(C)c1-c1cccc2c1CC[C@H](NC(C)C)C2` [Example P, (2S)-Isopropyl-[5-(1,3,5-trimethyl-1H-pyrazol-4-yl)-1,2,3,4-tetrahydro-naphthalen-2-yl]-amine]: the IC50 is 587 ± 10 nM and the inhibition at 1 µM amounted to 61.7%.
